From patent publication US11371097B2, “Articles for diagnosis of liver fibrosis” (THE GOVERNMENT OF THE UNITED STATES, as represented by THE …, priority 2015, dated 2022)
“Also recorded” adds a separate entry of the source.

Experiments:
[1] = test system: liver gene expression; assay: Liver gene expression by microarray (transcriptomic analysis); format: in vivo, rats
Method: (§1) Serum miRNA expression was measured by next-generation sequencing. Gene expression in the liver was determined by microarray, and global serum and liver protein expression was determined by semi-quantitative mass spectrometry. […] Transcriptomic analysis identified 506 differentially expressed genes in the liver. 13 miRNAs were predicted to target 100 unique differentially expressed genes in the liver. Global proteomics analysis identified 131 differentially expressed proteins in the liver and 53 in the serum. Of these, 7 miRNAs targeted 13 unique genes coding for differentially expressed liver tissue proteins and 3 miRNAs targeted 3 unique genes coding for serum proteins. These 16 differentially expressed miRNAs in the serum are predicted to target and potentially regulate gene expression contributing to the progression of toxic liver injury. (Fermenter M G et al. Serum miRNA as prognostic indicators of toxic liver injury. Submitted abstract in October 2015 for presentation at the Society of Toxicology in March 2016 (New Orleans, La.)).

[2] = test system: tissue, plasma, or serum protein abundance; assay: Global semiquantitative proteomics (iTRAQ mass spectrometry) of tissue, plasma, serum; format: in vivo, Rattus norvegicus; conditions: for Differentially expressed proteins: global proteomics
Excerpt: Global semiquantitative proteomics analysis (iTRAQ analysis) identified protein products of a subset of the 24 genes differentially expressed in liver tissue specific for the fibrosis phenotype (Table 6). Six protein products were identified in plasma, four in the serum, and two in the liver tissue (Table 6). All protein products were identified in the contrast analysis as specific for the fibrosis phenotype. The direction of the changes in protein products matched the transcriptomics data with the exception of insulin-like growth factor binding protein complex acid labile subunit precursor. […] (Ippolito D L, et. al. Gene expression patterns associated with histopathology in toxic liver fibrosis. Tox Sci. 2015 Sep. 22. pii: kfv214)
as §1

[3] = test system: liver; conditions: 5-7 days oral administration or intraperitoneal injection, various doses; cited from earlier work
[4] = test system: Tgfb1; assay: qPCR of liver RNA: Tgfb1; format: in vivo, Male Sprague-Dawley rats
Method: (§2) Working on dry ice, a portion (−10 mg) of flash-frozen liver was cut from each sample and transferred to a clean, labeled tube. Total RNA was then isolated using Qiagen's miRNeasy 96 kit (Qiagen, Valencia, Calif.) following manufacturer's instructions with a final elution volume of −150 μL (2×75 μL). The quality and quantity of RNA samples were evaluated with a 2100 Bioanalyzer (Agilent Technologies, Santa Clara, Calif.), using the Agilent RNA 6000 Nano Reagents and a multiwell NanoDrop 8000 spectrophotometer (Thermo Fisher Scientific, Waltham, Mass.).
(§3) Using 1 μg RNA input, cDNA was generated using a QuantiTect Reverse Transcription kit (Qiagen, Valencia, Calif.) following manufacturer's instructions. Applied Biosystems SYBR Green Master Mix was used in a 20 μL qPCR reaction with 2 μL of cDNA template and a 2.tM final concentration of each primer. A total of five genes were targeted (Gapdh, Actb, Timp1, Tgfbl, and Psma5), two of which served as the endogenous controls (Gapdh and Actb). An Applied Biosystems 7500 Real-Time PCR System (Applied Biosystems, Foster City, Calif.) was used for thermal cycling and fluorescence detection using the default settings for Quantitation-Comparative CT with SYBR® . . . Green Reagents which uses the following scheme: 95° C. for 10 minutes followed by 40 cycles of: 95° C. for 15 seconds, 60° C. for 1 minute, and a fluorescence signal read. Al! primers were obtained from Integrated DNA Technology's PrimeTime qPCR primer library (Integrated DNA Technologies, Coralville, Iowa).
Data was imported into GraphPad Prism (GraphPad Software, Inc.; LaJolla, Calif.) for analysis. A nonparametric Kruskal-Wallis analysis of variance by ranks with post hoc […] multiple comparison test was used to determine statistical difference among dose groups. A one sample t-test compared to a theoretical mean of 1.0 fold change was used to determine difference from control for each dose group. A p-value<0.05 was used as a cutoff for statistical significance.

[5] = test system: Timp1; assay: qPCR of liver RNA: Timp1; format: in vivo, Male Sprague-Dawley rats; conditions: across dose groups, vs control
Method: as §2
as §3, with “Al! primers were obtained from Integrated DNA Technology's PrimeTime qPCR primer library (Integrated DNA Technologies, Coralville, Iowa).” left out

[6] = test system: serum miRNA; assay: Serum miRNA expression by next-generation sequencing; format: in vivo, rats; conditions: FDR<0.05
Method: as §1

[7] = test system: Psma5; assay: qPCR of liver RNA: Psma5; format: in vivo, Male Sprague-Dawley rats; conditions: high-dose group with vacuolation pathology; p<0.05
Method: as §2
as §3, with “Al! primers were obtained from Integrated DNA Technology's PrimeTime qPCR primer library (Integrated DNA Technologies, Coralville, Iowa).” left out

[8] = Observation of plasma (lipemia) after dosing; format: in vivo, Male Sprague-Dawley rats; conditions: all doses
Method: Animals were observed cageside one hour following daily dose administration, then 1-2 times per day during dosing regimens. Body weights were measured daily prior to dose administration, and prior to euthanasia. Twenty-four hours after the final dose administration, animals were anesthetized with isoflurane then euthanized by exsanguination followed by decapitation. Livers were harvested at necropsy and weighed to within 0.1 g. One half of the left lobe of the liver was fixed in 10% formalin. The remaining half of the left lobe of the liver was flash frozen in liquid nitrogen, then stored below −70° C. Liver specimens were frozen in less than three minutes from time of death.

[9] = test system: 67 genes on the fibrosis gene panel; conditions: rat, in vivo
[10] = plasma, 4,4′-methylenedianiline/vehicle, Group 2
[11] = serum, 4,4′-methylenedianiline/vehicle, Group 2
[12] = tissue, 4,4′-methylenedianiline/vehicle, Group 2
[13] = liver, across dose groups, vs control

Structure (SMILES): Nc1ccc(Cc2ccc(N)cc2)cc1 [4,4′-methylenedianiline]
- Differentially expressed genes [1]: 506
- Differentially expressed proteins ([2]; liver): 131
- Fold change alpha-2-macroglobulin precursor [2, 10]: 2.2 Fold change
- Fold change ceruloplasmin isoform 1 precursor [2, 10]: 2.5 Fold change
- Fold change fibronectin precursor [2, 10]: −1.3 Fold change
- Fold change insulin-like growth factor-binding protein complex acid labile subunit precursor [2, 10]: −1.4 Fold change
- Fold change vitronectin precursor [2, 10]: −1.6 Fold change
- Differentially expressed proteins ([2]; serum): 53
- Fold change alpha-2-macroglobulin precursor [2, 11]: 2.4 Fold change
- Fold change ceruloplasmin isoform 1 precursor [2, 11]: 2.4 Fold change
- Fold change complement C1q subcomponent subunit B precursor [2, 11]: 1.6 Fold change
- Fold change vitronectin precursor [2, 11]: −1.1 Fold change
- Fold change ceruloplasmin isoform 1 precursor [2, 12]: 3.0 Fold change
- Fold change fibronectin precursor [2, 12]: 1.4 Fold change
- Fibrosis score in the DrugMatrix study [3]: scored fibrosis-positive
- Tgfb1 gene expression by qPCR [4, 13]: showed a dose-dependent increase; also recorded: dose-dependent increases in gene expression
- Timp1 gene expression by qPCR [5]: showed a dose-dependent increase; also recorded: dose-dependent increases in gene expression
- Differentially expressed miRNA [6]: 16
- Downregulated miRNA [6]: 4
- Upregulated miRNA [6]: 12

Structure (SMILES): Brc1ccccc1 [bromobenzene]
- Psma5 expression [7]: 2.2±0.8 fold vehicle control
- Tgfb1 gene expression by qPCR [4, 13]: not significantly affected at any dose; also recorded: slight, statistically insignificant increase

Structure (SMILES): ClC(Cl)(Cl)Cl [carbon tetrachloride]
- Tgfb1 gene expression by qPCR [4, 13]: insignificant
- Tgfb1 gene expression by qPCR ([4]; liver, across dose groups, vs control, listed as Carbon tetrachloride): not significantly upregulated at any dose

Structure (SMILES): C[C@@H]1C[C@H]2[C@@H]3CCC4=CC(=O)C=C[C@]4(C)[C@@]3(F)[C@@H](O)C[C@]2(C)[C@@]1(O)C(=O)CO [dexamethasone]
- Lipemia (plasma appearance) [8]: resulted in lipemia (milky white plasma)
- Panel genes downregulated (and upregulated in fibrogenic chemical-dose groups) [9]: 12 genes
- Pcolce expression levels compared with fibrogenic compounds [9]: anti-correlated with corresponding gene expression levels induced by 4,4′-methylenedianiline and allyl alcohol
- Tgfb1 gene expression by qPCR ([4]; 44.8 mg/kg): the difference was not statistically significant
- Tgfb1 gene expression by qPCR ([4]; 1, 6.7, or 300 mg/kg): significantly downregulated
- Tgfb1 gene expression by qPCR [4, 13]: decreased gene expression
